Tests used:
[1] = tested on: ALOMY; test: Pre-emergence herbicidal action against ALOMY; assay type: in vivo, Alopecurus myosuroides; details: pre-emergence
Summary of the method: (§1)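 Herbicidal effect was assessed 3 weeks after treatment by visual comparison with untreated controls, 100% denoting dead plants. Aqueous WP or EC preparations had been applied at 600 to 800 l/ha with 0.2% wetting agent to the soil covering freshly sown seeds.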

[2] = tested on: ABUTH; test: Pre-emergence herbicidal action against ABUTH; assay type: in vivo, Abutilon theophrasti
Summary of the method: as §1

[3] = tested on: VERPE; test: Pre-emergence herbicidal action against VERPE; assay type: in vivo, Veronica persica
Summary of the method: as §1

[4] = tested on: VERPE; test: Post-emergence herbicidal action against VERPE; assay type: in vivo, Veronica persica; details: 20 g/ha
Summary of the method: (§2)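 Herbicidal effect was scored visually in percent after about 3 weeks in the greenhouse. Plants had been raised in sandy loam and treated post-emergence at the one-leaf stage with formulated compound at 600 to 800 l/ha water plus 0.2% wetting agent.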

[5] = tested on: ECHCG; test: Post-emergence herbicidal action against ECHCG; assay type: in vivo, Echinochloa crus-galli
Summary of the method: as §2

[6] = tested on: AMARE; test: Post-emergence herbicidal action against AMARE; assay type: in vivo, Amaranthus retroflexus; details: 20 g/ha, visual assessment about 3 weeks after treatment, 100% = plants have died, 0% = like control plants
Summary of the method: as §2

[7] = tested on: ECHCG; test: Pre-emergence herbicidal action against ECHCG; assay type: in vivo, Echinochloa crus-galli; details: 80 g/ha
Summary of the method: as §1

[8] = tested on: SETVI; test: Pre-emergence herbicidal action against SETVI; assay type: in vivo, Setaria viridis
Summary of the method: as §1

[9] = tested on: VIOTR; test: Pre-emergence herbicidal action against VIOTR; assay type: in vivo, Viola tricolor
Summary of the method: as §1

[10] = tested on: VIOTR; test: Post-emergence herbicidal action against VIOTR; assay type: in vivo, Viola tricolor; details: 20 g/ha
Summary of the method: as §2

[11] = tested on: PHBPU; test: Post-emergence herbicidal action against PHBPU; assay type: in vivo, Pharbitis purpurea
Summary of the method: as §2

[12] = tested on: MATIN; test: Post-emergence herbicidal action against MATIN; assay type: in vivo, Matricaria inodora
Summary of the method: as §2

[13] = tested on: AMARE; test: Pre-emergence herbicidal action against AMARE; assay type: in vivo, Amaranthus retroflexus
Summary of the method: as §1

[14] = tested on: ALOMY; test: Post-emergence herbicidal action against ALOMY; assay type: in vivo, Alopecurus myosuroides; details: visual assessment about 3 weeks after treatment vs untreated controls
Summary of the method: as §2

[15] = tested on: SETVI; test: Post-emergence herbicidal action against SETVI; assay type: in vivo, Setaria viridis
Summary of the method: as §2

[16] = tested on: AVEFA; test: Post-emergence herbicidal action against AVEFA; assay type: in vivo, Avena fatua; details: 20 g/ha, visual assessment about 3 weeks after treatment, 100% = plants have died, 0% = like control plants
Summary of the method: as §2

[17] = tested on: PHBPU; test: Pre-emergence herbicidal action against PHBPU; assay type: in vivo, Pharbitis purpurea
Summary of the method: as §1

[18] = tested on: LOLRI; test: Pre-emergence herbicidal action against LOLRI; assay type: in vivo, Lolium rigidum; details: 80 g/ha
Summary of the method: as §1

[19] = tested on: ABUTH; test: Post-emergence herbicidal action against ABUTH; assay type: in vivo, Abutilon theophrasti; details: visual assessment about 3 weeks after treatment vs untreated controls
Summary of the method: as §2

[20] = tested on: MATIN; test: Pre-emergence herbicidal action against MATIN; assay type: in vivo, Matricaria inodora
Summary of the method: as §1

[21] = tested on: AVEFA; test: Pre-emergence herbicidal action against AVEFA; assay type: in vivo, Avena fatua; details: pre-emergence
Summary of the method: as §1

[22] = tested on: DIGSA; test: Pre-emergence herbicidal action against DIGSA; assay type: in vivo, Digitaria sanguinalis
Summary of the method: as §1

[23] = tested on: DIGSA; test: Post-emergence herbicidal action against DIGSA; assay type: in vivo, Digitaria sanguinalis; details: 20 g/ha
Summary of the method: as §2

[24] = 80 g/ha, scored visually after 3 weeks vs untreated controls (100% = plants have died, 0% = like control plants)
[25] = dosage 20 g/ha, scored visually after 3 weeks vs untreated controls, 100% = plants have died, 0% = like control plants
[26] = 20 g/ha, scored visually after 3 weeks vs untreated controls, 100% = plants have died, 0% = like control plants
[27] = Setaria viridis, 504 h, dosage 20 g/ha
[28] = Ipomoea purpurea, 504 h, dosage 20 g/ha
[29] = Tripleurospermum inodorum, 504 h, dosage 20 g/ha

CSc1c(C(=O)Nc2nnnn2C)ccc(C(F)F)c1C(=O)NCC(F)F [Example 1-92]
100%: Pre-emergence action against ABUTH (herbicidal activity) [2, 24] | Pre-emergence action against ABUTH (herbicidal activity in percent) [2, 25] | Pre-emergence action against VERPE in % ([3]; dosage 80 g/ha) | Post-emergence action against ECHCG in % ([5]; dosage 5 g/ha) | Post-emergence action against ECHCG in % ([5]; dosage 20 g/ha) | Post-emergence action at 20 g/ha against AMARE in % [6] | Pre-emergence action against ECHCG in % [7] | Pre-emergence action against SETVI in % ([8]; dosage 80 g/ha) | Pre-emergence action against VIOTR in % ([9]; dosage 80 g/ha) | Post-emergence action against VIOTR in % [10] | Pre-emergence action against AMARE in % [13, 26] | Pre-emergence action against AMARE in % [13, 24] | Post-emergence action against SETVI in % ([15]; dosage 20 g/ha) | Post-emergence action against ABUTH in % ([19]; dosage 20 g/ha) | Pre-emergence action against MATIN in % ([20]; dosage 20 g/ha) | Pre-emergence action against MATIN in % ([20]; dosage 80 g/ha)
90%: Pre-emergence action against ALOMY (herbicidal activity) [1, 24] | Post-emergence action against VERPE in % [4] | Post-emergence action against PHBPU in % ([11]; dosage 20 g/ha) | Post-emergence action against ALOMY in % ([14]; dosage 20 g/ha) | Post-emergence action against SETVI in % ([15]; dosage 5 g/ha) | Post-emergence action at 20 g/ha against AVEFA in % [16] | Pre-emergence action against PHBPU in % ([17]; dosage 80 g/ha) | Pre-emergence action against LOLRI in % [18] | Post-emergence action against ABUTH in % ([19]; dosage 5 g/ha)
80%: Post-emergence action against MATIN in % ([12]; dosage 20 g/ha)

CCn1nnnc1NC(=O)c1ccc(C(F)(F)F)c(C(=O)NC(C)C)c1C [Example 2-33]
100%: pest or weed control at 80 g/ha ([1]; Alopecurus myosuroides, 504 h, 80 g/ha, scored visually after 3 weeks vs untreated controls (100% = plants have died, 0% = like control plants)) | pest or weed control at 80 g/ha ([2]; Abutilon theophrasti, 504 h, 80 g/ha, scored visually after 3 weeks vs untreated controls (100% = plants have died, 0% = like control plants)) | pest or weed control at 20 g/ha ([2]; Abutilon theophrasti, 504 h, dosage 20 g/ha, scored visually after 3 weeks vs untreated controls, 100% = plants have died, 0% = like control plants, read-out: Pre-emergence action against ABUTH (herbicidal activity in percent)) | pest or weed control at 20 g/ha ([5]; Echinochloa crus-galli, 504 h, dosage 20 g/ha) | pest or weed control at 20 g/ha ([6]; Amaranthus retroflexus, 504 h) | pest or weed control at 80 g/ha ([7]; Echinochloa crus-galli, 504 h) | pest or weed control at 80 g/ha ([8]; Setaria viridis, 504 h, dosage 80 g/ha) | pest or weed control at 20 g/ha ([9]; Viola tricolor, 504 h, dosage 20 g/ha) | pest or weed control at 80 g/ha ([9]; Viola tricolor, 504 h, dosage 80 g/ha) | pest or weed control at 20 g/ha ([22]; Digitaria sanguinalis, 504 h, dosage 20 g/ha) | pest or weed control at 80 g/ha ([22]; Digitaria sanguinalis, 504 h, dosage 80 g/ha) | pest or weed control at 20 g/ha ([13]; Amaranthus retroflexus, 504 h, 20 g/ha, scored visually after 3 weeks vs untreated controls, 100% = plants have died, 0% = like control plants) | pest or weed control at 80 g/ha ([13]; Amaranthus retroflexus, 504 h, 80 g/ha, scored visually after 3 weeks vs untreated controls, 100% = plants have died, 0% = like control plants) | pest or weed control at 20 g/ha ([14]; Alopecurus myosuroides, 504 h, dosage 20 g/ha) | pest or weed control at 20 g/ha [15, 27] | pest or weed control at 20 g/ha ([16]; Avena fatua, 504 h) | pest or weed control at 20 g/ha [20, 29] | pest or weed control at 80 g/ha ([20]; Tripleurospermum inodorum, 504 h, dosage 80 g/ha)
90%: pest or weed control at 20 g/ha ([1]; Alopecurus myosuroides, 504 h, 20 g/ha, scored visually after 3 weeks, 100% = plants have died, 0% = like control plants) | pest or weed control at 80 g/ha ([3]; Veronica persica, 504 h, dosage 80 g/ha) | pest or weed control at 5 g/ha ([5]; Echinochloa crus-galli, 504 h, dosage 5 g/ha) | pest or weed control at 80 g/ha ([21]; Avena fatua, 504 h, 80 g/ha) | pest or weed control at 20 g/ha [11, 28] | pest or weed control at 5 g/ha ([12]; Tripleurospermum inodorum, 504 h, dosage 5 g/ha) | pest or weed control at 20 g/ha [12, 29] | pest or weed control at 5 g/ha ([14]; Alopecurus myosuroides, 504 h, dosage 5 g/ha) | pest or weed control at 5 g/ha ([19]; Abutilon theophrasti, 504 h, dosage 5 g/ha) | pest or weed control at 20 g/ha ([19]; Abutilon theophrasti, 504 h, dosage 20 g/ha)
80%: pest or weed control at 20 g/ha ([3]; Veronica persica, 504 h, dosage 20 g/ha) | pest or weed control at 20 g/ha [8, 27] | pest or weed control at 20 g/ha ([21]; Avena fatua, 504 h, 20 g/ha, scored visually after 3 weeks, 100% = plants have died, 0% = like control plants) | pest or weed control at 5 g/ha ([15]; Setaria viridis, 504 h, dosage 5 g/ha) | pest or weed control at 20 g/ha [17, 28] | pest or weed control at 80 g/ha ([17]; Ipomoea purpurea, 504 h, dosage 80 g/ha) | pest or weed control at 80 g/ha ([18]; Lolium rigidum, 504 h)

CCn1nnnc1NC(=O)c1ccc(C(F)(F)F)c(C(=O)NC(C)C2CC2)c1Cl (stereo not drawn) [Example 2-135]
100%: Pre-emergence action against ABUTH (herbicidal activity) [2, 24] | Pre-emergence action against ABUTH (herbicidal activity in percent) [2, 25] | Pre-emergence action against VERPE in % ([3]; dosage 80 g/ha) | Pre-emergence action against ECHCG in % [7] | Pre-emergence action against SETVI in % ([8]; dosage 80 g/ha) | Pre-emergence action against VIOTR in % ([9]; dosage 20 g/ha) | Pre-emergence action against VIOTR in % ([9]; dosage 80 g/ha) | Pre-emergence action against DIGSA in % ([22]; dosage 20 g/ha) | Pre-emergence action against DIGSA in % ([22]; dosage 80 g/ha) | Pre-emergence action against AMARE in % [13, 26] | Pre-emergence action against AMARE in % [13, 24] | Pre-emergence action against MATIN in % ([20]; dosage 80 g/ha)
80%: Post-emergence action against ECHCG in % ([5]; dosage 5 g/ha) | Post-emergence action against DIGSA [23] | Post-emergence action against PHBPU in % ([11]; dosage 5 g/ha) | Post-emergence action against PHBPU in % ([11]; dosage 20 g/ha) | Post-emergence action at 20 g/ha against AVEFA in % [16] | Pre-emergence action against PHBPU in % ([17]; dosage 80 g/ha) | Pre-emergence action against LOLRI in % [18] | Post-emergence action against ABUTH in % ([19]; dosage 20 g/ha)
90%: Pre-emergence action against ALOMY (herbicidal activity) [1, 24] | Post-emergence action against VERPE in % [4] | Post-emergence action against ECHCG in % ([5]; dosage 20 g/ha) | Post-emergence action at 20 g/ha against AMARE in % [6] | Pre-emergence action against AVEFA in % ([21]; 80 g/ha) | Post-emergence action against VIOTR in % [10] | Post-emergence action against MATIN in % ([12]; dosage 5 g/ha) | Post-emergence action against MATIN in % ([12]; dosage 20 g/ha) | Pre-emergence action against MATIN in % ([20]; dosage 20 g/ha)

Source: patent US12655116B2, “Substituted isophthalic acid diamides” (Bayer Aktiengesellschaft, priority 2020, dated 2026)
